Reference: ChEMBL document CHEMBL4507291 (2021)

How the values were obtained:
[1] = target: Leucine-rich repeat serine/threonine-protein kinase 2 (Homo sapiens, UniProt Q5S007); assay: Cellular assay monitoring dephosphorylation of pSer935 LRRK2
[2] = tested on: Leucine-rich repeat serine/threonine-protein kinase 2 (Homo sapiens), Q5S007 [G2019S]; details: Compound concentration 1000.0 nM
[3] = target: Proto-oncogene tyrosine-protein kinase Src (Homo sapiens) (UniProt P12931); assay: SRC Kinase screen; details: Compound concentration 1.0 uM
Sequence of Proto-oncogene tyrosine-protein kinase Src (Homo sapiens) (P12931 2-536 limits assumed): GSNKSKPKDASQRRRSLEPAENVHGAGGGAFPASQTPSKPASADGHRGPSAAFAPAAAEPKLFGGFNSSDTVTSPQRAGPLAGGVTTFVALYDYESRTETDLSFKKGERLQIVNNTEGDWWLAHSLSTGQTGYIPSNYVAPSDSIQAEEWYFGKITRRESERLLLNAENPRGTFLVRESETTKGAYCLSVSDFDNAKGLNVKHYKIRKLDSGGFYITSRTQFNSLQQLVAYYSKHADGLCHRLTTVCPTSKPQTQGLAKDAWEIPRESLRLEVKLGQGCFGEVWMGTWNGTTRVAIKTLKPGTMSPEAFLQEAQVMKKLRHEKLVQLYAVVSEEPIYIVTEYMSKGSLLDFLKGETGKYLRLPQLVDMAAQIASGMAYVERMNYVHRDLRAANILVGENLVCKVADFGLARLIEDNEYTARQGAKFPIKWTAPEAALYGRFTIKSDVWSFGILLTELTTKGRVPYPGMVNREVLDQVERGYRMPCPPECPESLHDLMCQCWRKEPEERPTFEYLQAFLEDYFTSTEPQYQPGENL

[4] = target: Protein kinase C beta type (Homo sapiens) (UniProt P05771); assay: PRKCB1 (PKC beta I) Kinase screen; details: Compound concentration 1.0 uM
[5] = target: T1, Mitogen-activated protein kinase kinase kinase kinase 2 (Homo sapiens) (UniProt Q12851); assay: MAP4K2 (GCK) Kinase screen; details: Compound concentration 1.0 uM
T1 sequence (whole entry): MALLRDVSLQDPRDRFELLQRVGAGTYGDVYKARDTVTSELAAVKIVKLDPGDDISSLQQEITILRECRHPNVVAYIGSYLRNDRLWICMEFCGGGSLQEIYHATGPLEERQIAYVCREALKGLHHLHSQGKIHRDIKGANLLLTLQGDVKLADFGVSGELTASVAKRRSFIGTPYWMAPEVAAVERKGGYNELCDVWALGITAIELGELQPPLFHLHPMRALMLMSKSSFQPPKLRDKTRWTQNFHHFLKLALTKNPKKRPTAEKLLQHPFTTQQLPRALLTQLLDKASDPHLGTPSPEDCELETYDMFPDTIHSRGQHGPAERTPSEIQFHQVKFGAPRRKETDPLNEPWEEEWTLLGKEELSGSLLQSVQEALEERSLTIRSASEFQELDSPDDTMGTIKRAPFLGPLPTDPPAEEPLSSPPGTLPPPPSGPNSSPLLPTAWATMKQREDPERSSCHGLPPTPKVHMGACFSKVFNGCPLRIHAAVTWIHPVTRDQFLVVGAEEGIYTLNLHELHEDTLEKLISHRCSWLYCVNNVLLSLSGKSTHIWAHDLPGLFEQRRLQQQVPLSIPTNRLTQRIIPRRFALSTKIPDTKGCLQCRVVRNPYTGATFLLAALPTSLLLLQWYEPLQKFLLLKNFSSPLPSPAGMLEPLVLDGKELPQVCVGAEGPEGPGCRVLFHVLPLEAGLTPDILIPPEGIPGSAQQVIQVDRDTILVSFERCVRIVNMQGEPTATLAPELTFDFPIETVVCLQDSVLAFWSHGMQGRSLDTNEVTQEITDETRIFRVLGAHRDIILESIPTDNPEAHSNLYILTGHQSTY

[6] = target: Tyrosine-protein kinase JAK1 (Homo sapiens) (UniProt P23458); assay: JAK1 Kinase screen; details: Compound concentration 1.0 uM
[7] = target: Protein kinase C delta type (Homo sapiens) (UniProt Q05655); assay: PRKCD (PKC delta) Kinase screen; details: Compound concentration 1.0 uM
Sequence of Protein kinase C delta type (Homo sapiens) (Q05655 whole entry, looked up): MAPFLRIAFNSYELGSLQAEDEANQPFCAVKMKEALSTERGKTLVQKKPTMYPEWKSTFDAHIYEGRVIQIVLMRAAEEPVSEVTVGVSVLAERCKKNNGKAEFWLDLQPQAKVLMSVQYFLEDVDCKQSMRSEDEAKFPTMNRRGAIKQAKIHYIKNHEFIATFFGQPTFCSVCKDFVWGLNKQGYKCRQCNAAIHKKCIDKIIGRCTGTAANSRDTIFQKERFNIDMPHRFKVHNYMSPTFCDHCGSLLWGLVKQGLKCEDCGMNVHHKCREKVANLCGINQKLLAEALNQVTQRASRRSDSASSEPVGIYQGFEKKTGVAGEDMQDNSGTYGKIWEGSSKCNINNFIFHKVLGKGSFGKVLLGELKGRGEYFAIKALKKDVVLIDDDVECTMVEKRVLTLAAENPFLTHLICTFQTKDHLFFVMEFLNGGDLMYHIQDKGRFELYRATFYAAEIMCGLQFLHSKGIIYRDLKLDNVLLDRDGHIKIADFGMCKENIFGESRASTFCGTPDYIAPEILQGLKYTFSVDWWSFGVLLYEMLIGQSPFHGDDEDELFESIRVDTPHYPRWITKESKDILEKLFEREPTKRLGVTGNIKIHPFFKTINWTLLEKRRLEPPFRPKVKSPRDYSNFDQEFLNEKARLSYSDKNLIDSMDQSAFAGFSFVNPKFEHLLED

[8] = target: Death-associated protein kinase 1 (Homo sapiens) (UniProt P53355); assay: DAPK1 Kinase screen; details: Compound concentration 1.0 uM
[9] = target: T2, Tyrosine-protein kinase receptor TYRO3 (Homo sapiens) (UniProt Q06418); assay: TYRO3 (RSE) Kinase screen; details: Compound concentration 1.0 uM
T2 sequence (whole entry): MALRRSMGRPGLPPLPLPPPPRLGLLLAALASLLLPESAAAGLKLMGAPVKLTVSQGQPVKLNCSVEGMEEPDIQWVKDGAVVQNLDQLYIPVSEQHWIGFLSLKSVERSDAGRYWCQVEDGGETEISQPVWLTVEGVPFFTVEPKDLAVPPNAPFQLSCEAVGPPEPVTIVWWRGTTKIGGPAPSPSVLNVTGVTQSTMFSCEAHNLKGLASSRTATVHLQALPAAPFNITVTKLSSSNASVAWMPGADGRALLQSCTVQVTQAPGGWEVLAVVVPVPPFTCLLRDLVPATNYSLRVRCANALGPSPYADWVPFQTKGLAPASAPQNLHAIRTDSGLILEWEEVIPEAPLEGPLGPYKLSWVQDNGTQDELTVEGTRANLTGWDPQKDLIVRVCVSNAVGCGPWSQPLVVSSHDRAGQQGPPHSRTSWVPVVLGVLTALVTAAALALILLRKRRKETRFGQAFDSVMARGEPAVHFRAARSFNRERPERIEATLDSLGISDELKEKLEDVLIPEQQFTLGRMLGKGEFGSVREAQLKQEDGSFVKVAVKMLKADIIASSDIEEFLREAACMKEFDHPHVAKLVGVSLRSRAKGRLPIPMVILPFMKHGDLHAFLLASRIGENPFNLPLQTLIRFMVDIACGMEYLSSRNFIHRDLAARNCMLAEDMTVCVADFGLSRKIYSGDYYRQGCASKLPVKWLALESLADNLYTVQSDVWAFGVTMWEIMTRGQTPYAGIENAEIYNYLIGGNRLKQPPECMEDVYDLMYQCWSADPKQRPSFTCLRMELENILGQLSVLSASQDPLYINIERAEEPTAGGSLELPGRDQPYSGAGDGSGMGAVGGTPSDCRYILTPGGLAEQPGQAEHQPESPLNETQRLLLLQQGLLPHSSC

[10] = target: Glutamate NMDA receptor (Rattus norvegicus) (UniProt P35439+Q00959+Q00960+Q00961+Q62645+Q8VHN2+Q9R1M7); details: Compound concentration 10.0 uM
[11] = target: Mitogen-activated protein kinase kinase kinase kinase 5 (Homo sapiens) (UniProt Q9Y4K4); assay: MAP4K5 (KHS1) Kinase screen; details: Compound concentration 1.0 uM
[12] = target: Acetylcholinesterase (Homo sapiens) (UniProt P22303); details: Compound concentration 10.0 uM
[13] = target: T3, Serine/threonine-protein kinase Nek2 (Homo sapiens) (UniProt P51955); assay: NEK2 Kinase screen; details: Compound concentration 1.0 uM
T3 sequence (whole entry): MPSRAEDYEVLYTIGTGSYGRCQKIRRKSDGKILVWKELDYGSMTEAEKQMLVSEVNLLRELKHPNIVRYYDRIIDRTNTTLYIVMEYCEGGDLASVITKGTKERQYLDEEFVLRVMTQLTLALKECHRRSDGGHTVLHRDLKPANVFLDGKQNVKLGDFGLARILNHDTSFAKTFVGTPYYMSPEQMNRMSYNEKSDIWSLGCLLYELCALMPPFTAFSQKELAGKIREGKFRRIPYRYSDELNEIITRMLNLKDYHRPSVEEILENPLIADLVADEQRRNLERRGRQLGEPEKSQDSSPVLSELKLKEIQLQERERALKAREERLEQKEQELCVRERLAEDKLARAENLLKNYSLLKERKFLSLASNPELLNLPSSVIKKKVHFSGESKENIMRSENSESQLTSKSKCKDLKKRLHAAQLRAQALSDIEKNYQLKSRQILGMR

[14] = target: Nociceptin receptor (Homo sapiens) (UniProt P41146); assay: Orphanin ORL1 Eurofins-Panlabs radioligand binding assay; details: Compound concentration 10.0 uM
Sequence of Nociceptin receptor (Homo sapiens) (P41146 whole entry, canonical isoform): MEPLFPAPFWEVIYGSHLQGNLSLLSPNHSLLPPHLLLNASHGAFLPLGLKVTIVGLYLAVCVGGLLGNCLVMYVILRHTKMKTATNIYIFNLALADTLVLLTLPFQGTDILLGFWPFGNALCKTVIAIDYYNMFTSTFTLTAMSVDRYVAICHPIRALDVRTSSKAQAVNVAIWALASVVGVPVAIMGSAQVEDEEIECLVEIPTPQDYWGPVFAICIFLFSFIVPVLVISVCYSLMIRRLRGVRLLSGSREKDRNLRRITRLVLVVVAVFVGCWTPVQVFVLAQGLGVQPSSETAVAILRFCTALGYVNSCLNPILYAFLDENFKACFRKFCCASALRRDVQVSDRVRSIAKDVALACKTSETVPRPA

[15] = target: Casein kinase I isoform gamma-3 (Homo sapiens) (UniProt Q9Y6M4); assay: CSNK1G3 (CK1 gamma 3) Kinase screen; details: Compound concentration 1.0 uM
Sequence of Casein kinase I isoform gamma-3 (Homo sapiens) (Q9Y6M4 whole entry, looked up, canonical isoform): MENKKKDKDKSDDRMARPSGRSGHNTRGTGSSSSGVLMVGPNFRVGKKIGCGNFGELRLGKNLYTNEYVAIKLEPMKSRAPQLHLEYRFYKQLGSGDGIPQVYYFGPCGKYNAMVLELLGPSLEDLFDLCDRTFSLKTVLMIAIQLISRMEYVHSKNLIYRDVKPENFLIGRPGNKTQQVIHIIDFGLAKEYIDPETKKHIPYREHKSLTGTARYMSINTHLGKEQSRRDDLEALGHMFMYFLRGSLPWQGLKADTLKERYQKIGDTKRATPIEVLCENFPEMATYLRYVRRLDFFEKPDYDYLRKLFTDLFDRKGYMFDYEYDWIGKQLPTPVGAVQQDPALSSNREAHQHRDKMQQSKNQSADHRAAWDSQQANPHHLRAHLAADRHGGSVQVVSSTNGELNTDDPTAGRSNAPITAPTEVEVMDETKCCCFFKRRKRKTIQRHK

[16] = target: AMPK alpha2/beta1/gamma1 (Homo sapiens) (UniProt P54646+P54619+Q9Y478); assay: AMPK A2/B1/G1 Kinase screen; format: protein-complex assay; details: Compound concentration 1.0 uM

Sequence of Leucine-rich repeat serine/threonine-protein kinase 2 (Homo sapiens), Q5S007 [G2019S] (Q5S007 whole entry G2019S): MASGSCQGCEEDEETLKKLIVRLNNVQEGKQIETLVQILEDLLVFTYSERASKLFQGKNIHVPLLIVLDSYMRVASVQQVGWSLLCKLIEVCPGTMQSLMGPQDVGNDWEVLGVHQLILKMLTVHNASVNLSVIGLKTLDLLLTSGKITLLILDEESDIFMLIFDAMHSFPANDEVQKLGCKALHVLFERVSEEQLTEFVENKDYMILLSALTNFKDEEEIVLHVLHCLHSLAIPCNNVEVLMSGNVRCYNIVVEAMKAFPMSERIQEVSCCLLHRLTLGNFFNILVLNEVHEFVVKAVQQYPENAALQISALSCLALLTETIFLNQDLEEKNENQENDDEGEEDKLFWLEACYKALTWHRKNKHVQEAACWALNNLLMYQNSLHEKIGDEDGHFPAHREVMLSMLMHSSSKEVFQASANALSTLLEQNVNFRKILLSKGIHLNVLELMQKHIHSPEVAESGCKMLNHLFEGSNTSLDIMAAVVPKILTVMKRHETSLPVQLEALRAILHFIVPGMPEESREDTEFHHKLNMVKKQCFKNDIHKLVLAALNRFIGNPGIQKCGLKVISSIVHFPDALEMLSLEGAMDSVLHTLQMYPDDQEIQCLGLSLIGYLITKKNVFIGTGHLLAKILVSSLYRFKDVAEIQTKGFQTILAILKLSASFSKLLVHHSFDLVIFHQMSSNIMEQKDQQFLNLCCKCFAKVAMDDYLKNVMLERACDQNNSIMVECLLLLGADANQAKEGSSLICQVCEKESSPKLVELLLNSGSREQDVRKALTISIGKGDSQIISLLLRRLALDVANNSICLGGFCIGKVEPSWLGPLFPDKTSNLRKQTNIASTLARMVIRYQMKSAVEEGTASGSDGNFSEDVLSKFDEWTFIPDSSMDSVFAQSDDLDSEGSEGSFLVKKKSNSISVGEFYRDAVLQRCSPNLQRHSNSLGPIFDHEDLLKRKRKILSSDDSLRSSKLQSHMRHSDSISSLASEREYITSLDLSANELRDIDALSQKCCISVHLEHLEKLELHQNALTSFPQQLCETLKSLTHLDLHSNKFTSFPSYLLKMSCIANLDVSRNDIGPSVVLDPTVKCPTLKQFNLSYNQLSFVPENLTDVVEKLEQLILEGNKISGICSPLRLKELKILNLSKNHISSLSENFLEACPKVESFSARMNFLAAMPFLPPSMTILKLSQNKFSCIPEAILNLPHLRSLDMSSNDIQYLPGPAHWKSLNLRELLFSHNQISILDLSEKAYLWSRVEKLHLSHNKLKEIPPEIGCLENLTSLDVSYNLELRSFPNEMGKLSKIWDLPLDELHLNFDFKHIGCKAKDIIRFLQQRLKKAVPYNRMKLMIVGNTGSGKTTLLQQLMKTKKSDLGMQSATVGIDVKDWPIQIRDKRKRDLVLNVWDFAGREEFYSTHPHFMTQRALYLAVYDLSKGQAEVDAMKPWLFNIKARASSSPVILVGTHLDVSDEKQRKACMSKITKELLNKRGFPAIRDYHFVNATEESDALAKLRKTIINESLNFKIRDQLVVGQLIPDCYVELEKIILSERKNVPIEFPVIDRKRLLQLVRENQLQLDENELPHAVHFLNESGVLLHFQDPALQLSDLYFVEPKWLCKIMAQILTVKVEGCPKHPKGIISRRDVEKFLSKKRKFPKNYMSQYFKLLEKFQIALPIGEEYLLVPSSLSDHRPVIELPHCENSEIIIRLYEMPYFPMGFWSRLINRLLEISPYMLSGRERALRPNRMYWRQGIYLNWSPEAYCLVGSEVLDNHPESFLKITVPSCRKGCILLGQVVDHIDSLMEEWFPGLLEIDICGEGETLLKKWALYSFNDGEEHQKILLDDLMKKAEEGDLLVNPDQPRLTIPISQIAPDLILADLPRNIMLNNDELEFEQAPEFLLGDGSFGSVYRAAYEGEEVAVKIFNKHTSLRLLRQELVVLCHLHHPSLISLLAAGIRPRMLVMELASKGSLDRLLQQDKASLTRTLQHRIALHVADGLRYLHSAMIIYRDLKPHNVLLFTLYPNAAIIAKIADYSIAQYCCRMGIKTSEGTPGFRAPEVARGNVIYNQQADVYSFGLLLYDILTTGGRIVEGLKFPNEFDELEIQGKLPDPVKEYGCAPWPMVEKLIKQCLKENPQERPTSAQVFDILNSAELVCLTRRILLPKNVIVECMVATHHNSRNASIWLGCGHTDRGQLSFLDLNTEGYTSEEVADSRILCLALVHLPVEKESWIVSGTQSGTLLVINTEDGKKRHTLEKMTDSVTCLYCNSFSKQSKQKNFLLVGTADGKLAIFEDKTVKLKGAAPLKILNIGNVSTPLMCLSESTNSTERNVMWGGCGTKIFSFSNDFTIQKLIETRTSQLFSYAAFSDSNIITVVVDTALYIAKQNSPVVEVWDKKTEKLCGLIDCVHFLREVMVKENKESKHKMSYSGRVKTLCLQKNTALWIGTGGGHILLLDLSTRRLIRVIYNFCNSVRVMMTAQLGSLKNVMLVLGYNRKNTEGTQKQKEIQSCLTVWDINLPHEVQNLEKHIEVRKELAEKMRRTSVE
Sequence of Leucine-rich repeat serine/threonine-protein kinase 2 (Q5S007 whole entry): as the sequence (Q5S007 whole entry G2019S) above, with S2019G counted along it

With `C[C@@H]1CN(c2cc(-c3nn(C)c4ccc(OC5(C)CC5)cc34)ncn2)C[C@H](C)O1` [MLi-2-NC] the IC50 [1] was 5.44 µM (not active) and the residual activity [2] was 36%.
In the case of `C[C@@H]1CN(c2cc(-c3n[nH]c4ccc(OC5(C)CC5)cc34)ncn2)C[C@H](C)O1` [MLi-2], the inhibition [3] is reported as 4.97%, the inhibition [4] is reported as -7.69% and the inhibition [5] is reported as 30.9%. For the same compound, the inhibition [6] was -2.46%, the inhibition [7] was 3.65% and the inhibition [8] was -0.645%. The inhibition [9] was 6.06%, the inhibition [10] was 4% and the inhibition [11] was 3.26%. For the same compound, the inhibition [12] was -2%, the inhibition [13] was -2.6% and the inhibition [14] was 7%. The inhibition [15] was 2.15% and the inhibition [16] was 5.68%.
